What all share (assay type): biochemical
The target in assay [1] is JAK2 (Homo sapiens (Human), UniProt O60674). The assay can be described thus: JAK2 LANCE Ultra kinase assay. The settings on record: 12 uM ATP.
Assay [2] addresses JAK1 (Homo sapiens (Human), UniProt P23458). The assay can be described thus: JAK1 LANCE Ultra kinase assay. The settings on record: for IC50: 38 uM ATP; for JAK2/JAK1: ratio of IC50 JAK2 to IC50 JAK1. As to the method: Inhibition test on activity of JAK kinase in vitro was carried out by the following methods.
JAK1 LANCE® Ultra assay, JAK2 LANCE® Ultra assay and JAK3 LANCE® Ultra assay were used to carry out the test separately, and kits of the above assays were supplied by PerkinElmer. […]
JAK1, JAK2 and JAK3 kinase, ATP and substrates were dissolved and diluted with buffers.
A test liquid was 2 nM Eu-W1024 anti-phosphotyrosine (PerkinElmer, AD0069). A stop buffer was 10 mM edetic acid (Intech, 1842C505).
2.5 μl of an 8-fold solution of the compound and 5 μl of a 4-fold solution of JAK1 or JAK2 or JAK3 kinase were added into a 384-well plate, respectively, and reacted for 10 minutes at room temperature. 2.5 μl of an 8-fold solution of ULight™-JAK-1 peptide/ATP was added and reacted for 90 minutes at room temperature. Finally, 5 μl of 4-fold edetic acid stop buffer and 5 μl of 4-fold test liquid of Eu-W1024 anti-phosphotyrosine were added and incubated for 60 minutes.
According to the formula: percentage of inhibition rate=(maximum value−transform value)/(maximum value−minimum value)×100, inhibition rate of each compound at various concentrations was calculated. The maximum value was the reference value of dimethyl sulfoxide added into the well plate, the minimum value was the blank value, and the transform value is the value obtained by the well of each compound. The IC50 values of the corresponding compounds were then obtained by fitting by using the XLFit fitting tool in excel.

Assay [3] deals with JAK3 (Homo sapiens (Human), UniProt P52333). Nature of the assay: JAK3 LANCE Ultra kinase assay.

Drawing on patent publication US12398141B2 (SHANGHAI SYNERGY PHARMACEUTICAL SCIENCES CO., LTD, priority 2019, dated 2025), this text covers IC50 and JAK2/JAK1 for 20 compounds.

Read-outs that look alike come from different tables or passages of the source.

Chain of JAK3 (P52333 whole entry): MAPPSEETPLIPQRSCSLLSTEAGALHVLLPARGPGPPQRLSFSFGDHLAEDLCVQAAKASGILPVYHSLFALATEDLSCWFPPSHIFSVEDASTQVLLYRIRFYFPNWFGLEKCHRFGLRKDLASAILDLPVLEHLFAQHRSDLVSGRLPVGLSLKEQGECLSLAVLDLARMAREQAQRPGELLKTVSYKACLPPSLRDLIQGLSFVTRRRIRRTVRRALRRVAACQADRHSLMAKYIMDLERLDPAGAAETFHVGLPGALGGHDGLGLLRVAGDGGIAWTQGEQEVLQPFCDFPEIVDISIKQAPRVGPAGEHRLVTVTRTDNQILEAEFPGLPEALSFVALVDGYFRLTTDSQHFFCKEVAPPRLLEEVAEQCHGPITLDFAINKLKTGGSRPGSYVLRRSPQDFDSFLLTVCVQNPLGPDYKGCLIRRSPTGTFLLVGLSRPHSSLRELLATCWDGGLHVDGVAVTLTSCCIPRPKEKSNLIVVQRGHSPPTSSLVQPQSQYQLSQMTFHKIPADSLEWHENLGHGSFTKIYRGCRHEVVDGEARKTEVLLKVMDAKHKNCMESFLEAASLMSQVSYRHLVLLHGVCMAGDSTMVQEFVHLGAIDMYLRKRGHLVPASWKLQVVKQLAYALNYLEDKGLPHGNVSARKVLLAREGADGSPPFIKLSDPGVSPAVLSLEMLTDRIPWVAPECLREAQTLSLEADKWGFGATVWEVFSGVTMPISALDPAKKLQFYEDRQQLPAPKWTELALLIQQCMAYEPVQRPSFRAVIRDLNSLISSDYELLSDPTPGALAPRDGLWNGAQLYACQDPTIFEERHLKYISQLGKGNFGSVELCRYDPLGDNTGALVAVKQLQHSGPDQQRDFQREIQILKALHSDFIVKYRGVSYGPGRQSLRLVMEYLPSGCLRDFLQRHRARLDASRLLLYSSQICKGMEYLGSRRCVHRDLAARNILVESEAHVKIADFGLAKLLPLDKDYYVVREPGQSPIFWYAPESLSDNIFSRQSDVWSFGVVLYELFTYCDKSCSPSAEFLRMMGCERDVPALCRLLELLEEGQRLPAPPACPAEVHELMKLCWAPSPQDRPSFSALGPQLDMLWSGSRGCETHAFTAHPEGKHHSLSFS
Chain of JAK2 (O60674 whole entry): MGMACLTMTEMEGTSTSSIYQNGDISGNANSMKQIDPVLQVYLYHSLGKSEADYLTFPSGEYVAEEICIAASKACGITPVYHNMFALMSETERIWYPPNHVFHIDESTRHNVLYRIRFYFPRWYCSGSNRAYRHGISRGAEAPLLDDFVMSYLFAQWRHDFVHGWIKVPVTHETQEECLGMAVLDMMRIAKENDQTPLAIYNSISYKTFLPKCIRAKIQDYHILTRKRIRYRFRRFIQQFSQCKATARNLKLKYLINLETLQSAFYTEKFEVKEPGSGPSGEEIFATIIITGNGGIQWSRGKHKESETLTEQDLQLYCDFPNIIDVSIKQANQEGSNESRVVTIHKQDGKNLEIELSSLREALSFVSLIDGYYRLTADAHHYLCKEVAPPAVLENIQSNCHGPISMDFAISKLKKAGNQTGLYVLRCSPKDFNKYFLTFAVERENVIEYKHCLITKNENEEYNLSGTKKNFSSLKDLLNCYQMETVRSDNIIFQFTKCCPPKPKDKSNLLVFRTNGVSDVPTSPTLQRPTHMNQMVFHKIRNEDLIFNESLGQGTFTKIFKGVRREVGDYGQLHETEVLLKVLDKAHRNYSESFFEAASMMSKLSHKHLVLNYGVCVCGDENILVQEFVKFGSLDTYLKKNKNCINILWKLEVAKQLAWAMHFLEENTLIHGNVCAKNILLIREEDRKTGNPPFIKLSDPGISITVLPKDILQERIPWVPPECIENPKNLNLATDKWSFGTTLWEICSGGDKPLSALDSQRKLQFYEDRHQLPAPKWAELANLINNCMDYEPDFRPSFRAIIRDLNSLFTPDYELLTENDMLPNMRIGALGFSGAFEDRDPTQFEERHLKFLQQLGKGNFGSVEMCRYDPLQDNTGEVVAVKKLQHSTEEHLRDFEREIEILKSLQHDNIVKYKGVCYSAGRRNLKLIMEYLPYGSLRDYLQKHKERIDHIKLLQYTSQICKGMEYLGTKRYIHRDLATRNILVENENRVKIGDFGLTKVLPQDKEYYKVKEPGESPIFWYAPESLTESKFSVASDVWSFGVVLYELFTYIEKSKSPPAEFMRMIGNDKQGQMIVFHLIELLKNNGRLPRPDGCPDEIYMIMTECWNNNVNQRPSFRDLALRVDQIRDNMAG
Chain of JAK1 (P23458 whole entry): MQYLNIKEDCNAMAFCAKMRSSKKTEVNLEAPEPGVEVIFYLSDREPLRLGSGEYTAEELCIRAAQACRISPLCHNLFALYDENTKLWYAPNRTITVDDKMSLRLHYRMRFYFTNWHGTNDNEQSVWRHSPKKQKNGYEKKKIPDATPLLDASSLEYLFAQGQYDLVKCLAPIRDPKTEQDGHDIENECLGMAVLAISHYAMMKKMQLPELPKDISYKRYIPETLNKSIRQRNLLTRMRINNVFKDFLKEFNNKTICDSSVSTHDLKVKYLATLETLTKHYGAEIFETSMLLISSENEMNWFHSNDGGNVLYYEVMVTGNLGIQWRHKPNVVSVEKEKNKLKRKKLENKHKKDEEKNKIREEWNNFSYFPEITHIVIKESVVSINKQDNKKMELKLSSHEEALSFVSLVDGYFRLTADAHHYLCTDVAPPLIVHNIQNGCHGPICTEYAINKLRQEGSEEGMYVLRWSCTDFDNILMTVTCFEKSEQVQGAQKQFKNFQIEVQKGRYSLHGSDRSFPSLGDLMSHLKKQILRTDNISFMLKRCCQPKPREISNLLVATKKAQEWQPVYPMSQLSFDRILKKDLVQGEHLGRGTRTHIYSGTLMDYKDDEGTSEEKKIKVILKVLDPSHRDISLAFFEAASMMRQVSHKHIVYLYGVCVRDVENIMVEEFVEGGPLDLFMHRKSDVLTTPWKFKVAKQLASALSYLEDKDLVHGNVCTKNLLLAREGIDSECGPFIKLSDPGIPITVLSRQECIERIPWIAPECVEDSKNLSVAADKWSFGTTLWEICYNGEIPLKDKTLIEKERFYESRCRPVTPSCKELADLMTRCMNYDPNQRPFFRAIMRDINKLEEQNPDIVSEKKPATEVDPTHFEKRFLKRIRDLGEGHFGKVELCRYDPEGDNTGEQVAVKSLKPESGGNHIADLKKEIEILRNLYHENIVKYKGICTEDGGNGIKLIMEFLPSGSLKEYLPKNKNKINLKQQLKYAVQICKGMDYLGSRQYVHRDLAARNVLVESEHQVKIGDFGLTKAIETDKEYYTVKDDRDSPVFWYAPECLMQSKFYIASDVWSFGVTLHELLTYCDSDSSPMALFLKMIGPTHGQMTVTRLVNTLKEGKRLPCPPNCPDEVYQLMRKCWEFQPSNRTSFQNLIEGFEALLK

Turning to `CN(c1c(C#N)cnc2[nH]ccc12)[C@H]1C[C@@H]2CN(C(=O)Nc3nc(OCC(C)(C)O)ns3)C[C@@H]2C1` [Compound H45, (3aR,5s,6aS)-5-((5-cyano-1H-pyrrolo[2,3-b]pyridin-4-yl)(methyl)amino)-N-(3-(2-hydroxy-2-methyl-propoxy)-1,2,4-thiadiazole-5-yl)hexahydrocyclopentadiene[c]pyrrole-2(1H)-carboxamide], the IC50 came to 50 nM in assay [1], 5.9 nM in assay [2] and 77 nM in assay [3] (4 uM ATP). In addition, in assay [2], the JAK2/JAK1 is on record as 8.47.

`N#Cc1cnc2[nH]ccc2c1N[C@H]1C[C@@H](NS(=O)(=O)c2ccc(C(F)(F)F)cc2)C1` [Compound H17, (cis)-4-{[3-(4-trifluoromethylbenzenesulfonamido)-cyclobutyl-1-yl]-amino}-1H-pyrrolo[2,3-b]pyridin-5-carbonitrile]: the half-inhibitory concentration (IC50) in assay [1] came out at 13 nM; in assay [2], 5 nM; in assay [3] (4 uM ATP), 27 nM. Also, the JAK2/JAK1 in assay [2] was 2.60.

For the compound `O=C(NCC(F)(F)F)N1C[C@H](Nc2c(C(F)(F)F)cnc3[nH]ccc23)[C@H](C2CC2)C1` (relative stereo) [Compound H91, (cis)-3-cyclopropyl-N-(2,2,2-trifluoroethyl)-4-((5-(trifluoromethyl)-1H-pyrrolo[2,3-b]pyridin-4-yl)amino)pyrrolidin-1-carboxamide], the IC50 in assay [1] was determined as 18.7 nM; in assay [2], 0.92 nM; in assay [3] (4 uM ATP), 96 nM. The JAK2/JAK1 in assay [2] was 20.33.

For the compound `CN(c1c(C#N)cnc2[nH]ccc12)C1CC(NS(=O)(=O)c2ccc(C(F)(F)F)cc2)C1` (stereo not drawn) [Compound H16, (cis)-4-{[3-(4-trifluoromethylbenzenesulfonamido)-cyclobutyl-1-yl]-methyl-amino}-1H-pyrrolo[2,3-b]pyridin-5-carbonitrile], the half-inhibitory concentration (IC50) in assay [1] came out at 132 nM; in assay [2], 9.16 nM; in assay [3] (4 uM ATP) it was 633 nM. The JAK2/JAK1 in assay [2] is on record as 14.41.

With `CN(c1c(C#N)cnc2[nH]ccc12)[C@H]1C[C@@H]2CN(S(=O)(=O)c3cccc(C(F)(F)F)c3)C[C@@H]2C1` [Compound H24], the IC50 was 12.6 nM in assay [1], 5.1 nM in assay [2] and 28 nM in assay [3] (4 uM ATP). The JAK2/JAK1 in assay [2] is 2.40.

As to `CC[C@@H]1CN(C(=O)CCC#N)C[C@@H]1Nc1c(C#N)cnc2[nH]ccc12` (relative stereo) [Compound H81, 4-(((cis)-1-(3-cyanopropionyl)-4-ethylpyrrolidin-3-yl)amino)-1H-pyrrolo[2,3-b]pyridin-5-carbonitrile], the IC50 in assay [1] turned out to be 117 nM; in assay [2] it was 9.3 nM; in assay [3] (4 uM ATP) it was 162 nM. Further, the JAK2/JAK1 in assay [2] was 12.58.

On to `CCCS(=O)(=O)N[C@H]1C[C@@H](Nc2c(C#N)cnc3[nH]ccc23)C1` [Compound H46, (cis)-4-{[3-(propanesulfonamido)-cyclobutyl-1-yl]-amino}-1H-pyrrolo [2,3-b]pyridin-5-carbonitrile], for which the IC50 was 9.8 nM in assay [1], 1.13 nM in assay [2] and 68 nM in assay [3] (4 uM ATP). The JAK2/JAK1 in assay [2] is recorded as 8.67.

With `C[C@H](O)C(=O)N1C[C@H]2C[C@H](N(C)c3c(C#N)cnc4[nH]ccc34)C[C@H]2C1` [Compound H23, (3aR,5S,6aS)-4-{[2-((2S)-2-hydroxypropionyl)-hexahydrocyclopenta[c]pyrrole-5-yl]-methyl-amino}-1H-pyrrolo[2,3-b]pyridin-5-carbonitrile], the figures for the 50% inhibitory concentration (IC50) in assay [1], in assay [2] and in assay [3] (4 uM ATP) were 135 nM, 7.16 nM and 533 nM, respectively. Further, in assay [2], the JAK2/JAK1 amounted to 18.85.

Turning to `CCC1CN(C(=O)NCC2CC2)CC1Nc1c(C#N)cnc2[nH]ccc12` (stereo not shown) [Compound H82, 3-((5-cyano-1H-pyrrolo[2,3-b]pyridin-4-yl)amino)-4-ethyl-N-(cyclopropylmethyl)pyrrolidin-1-carboxamide], the values for the IC50 in assay [1], in assay [2] and in assay [3] (4 uM ATP) were 69 nM, 8.9 nM and 172 nM, respectively. Further, the JAK2/JAK1 in assay [2] came to 7.75.

Turning to `CC[C@@H]1CN(C(=O)CCC(F)(F)F)C[C@@H]1Nc1c(C#N)cnc2[nH]ccc12` (relative stereo) [Compound H77, 4-(((cis)-4-ethyl-1-(4,4,4-trifluorobutyryl)pyrrolidin-3-yl)amino)-1H-pyrrolo[2,3-b]pyridin-5-carbonitrile], the 50% inhibitory concentration (IC50) in assay [1] came out at 49 nM; in assay [2] it was 4.2 nM; in assay [3] (4 uM ATP), 273 nM. In addition, the JAK2/JAK1 in assay [2] was 11.67.

Turning to `CN(c1c(C#N)cnc2[nH]ccc12)[C@H]1C[C@@H](NS(=O)(=O)CCC(F)(F)F)C1` [Compound H10, 4-{[3-(3,3,3-trifluoropropanesulfonamido)-cyclobutyl-1-yl]-methyl-amino}-1H-pyrrolo[2,3-b]pyridin-5-carbonitrile], the results for the IC50 in assay [1], in assay [2] and in assay [3] (4 uM ATP) were 36 nM, 4.98 nM and 143 nM, respectively.

With `N#Cc1cnc2[nH]ccc2c1N[C@H]1CN(C(=O)NCC(F)(F)F)CC12CC2` [Compound H72, (R)-7-((5-cyano-1H-pyrrolo[2,3-b]pyridin-4-yl)amino)-N-(2,2,2-trifluoroethyl)-5-azaspiro[2.4]heptane-5-carboxamide], the 50% inhibitory concentration (IC50) in assay [1] turned out to be 29 nM; in assay [2] it was 10.3 nM; in assay [3] (4 uM ATP), 75 nM. For the same compound, the JAK2/JAK1 in assay [2] was 2.82.

Consider `C[C@@H]1CN(S(=O)(=O)C[C@H]2CC[C@H](N(C)c3c(C#N)cnc4[nH]ccc34)CC2)C[C@H]1CO` (relative stereo) [Compound H66, 4-((trans-4-(((trans-3-(hydroxymethyl)-4-methylpyrrolidin-1-yl)sulfonyl)methyl)cyclohexyl)(methyl)amino)-1H-pyrrolo[2,3-b]pyridin-5-carbonitrile], for which the half-maximal inhibitory concentration (IC50) was 126 nM in assay [1], 8.9 nM in assay [2] and 197 nM in assay [3] (4 uM ATP). Also, the JAK2/JAK1 in assay [2] was found to be 14.16.

In the case of `CC[C@@H]1CC(NC(=O)CCC(F)(F)F)C[C@@H]1Nc1c(C#N)cnc2[nH]ccc12` (stereo in doubt) [Compound H59, N-(3-((5-cyano-1H-pyrrolo[2,3-b]pyridin-4-yl)amino)-4-ethylcyclopentyl)-4,4,4-trifluorobutanamide], the values for the concentration for half-maximal inhibition (IC50) in assay [1], in assay [2] and in assay [3] (4 uM ATP) were 11.6 nM, 2.06 nM and 39.6 nM, respectively. Besides, in assay [2], the JAK2/JAK1 was determined as 5.63.

Turning to `CC[C@@H]1CN(C(=O)Nc2nc(OC)ns2)C[C@@H]1Nc1c(C#N)cnc2[nH]ccc12` [Compound H80, 4-(((cis)-4-ethyl-1-(3-methoxy-1,2,4-thiadiazole-5-aminocarbonyl)pyrrolidin-3-yl)amino)-1H-pyrrolo[2,3-b]pyridin-5-carbonitrile], the half-maximal inhibitory concentration (IC50) amounted to 18.6 nM in assay [1], 2.9 nM in assay [2] and 152 nM in assay [3] (4 uM ATP). For the same compound, in assay [2], the JAK2/JAK1 is recorded as 6.41.

As to `N#Cc1cnc2[nH]ccc2c1N[C@H]1C[C@@H]2CN(C(=O)Nc3nc(C4CC4)ns3)C[C@@H]2C1` [Compound H49, (3aR,5s,6aS)-5-((5-cyano-1H-pyrrolo[2,3-b]pyridin-4-yl)amino)-N-(3-cyclopropyl-1,2,4-thiadiazole-5-yl)hexahydrocyclopentadiene[c]pyrrole-2(1H)-carboxamide], the IC50 is 15 nM in assay [1], 5.43 nM in assay [2] and 178 nM in assay [3] (4 uM ATP). Further, the JAK2/JAK1 in assay [2] worked out at 2.76.

Turning to `COCC1CCN(S(=O)(=O)C[C@H]2CC[C@H](N(C)c3c(C#N)cnc4[nH]ccc34)CC2)C1` (stereo partly drawn) [Compound H68, 4-((trans-4-(((3-(methoxymethyl)pyrrolidin-1-yl)sulfonyl)methyl)cyclohexyl)(methyl)amino)-1H-pyrrolo[2,3-b]pyridin-5-carbonitrile], the IC50 in assay [1] is 122 nM; in assay [2] it was 6.87 nM; in assay [3] (4 uM ATP), 386 nM. Also, in assay [2], the JAK2/JAK1 came out at 17.76.

On to `N#Cc1cnc2[nH]ccc2c1N[C@H]1C[C@@H](NS(=O)(=O)c2cccc(C(F)(F)F)c2)C1` [Compound H13, (cis)-4-{[3-(3-(trifluoromethyl)benzenesulfonamido)-cyclobutyl-1-yl]-amino}-1H-pyrrolo[2,3-b]pyridin-5-carbonitrile], for which the results for the IC50 in assay [1], in assay [2] and in assay [3] (4 uM ATP) were 21 nM, 2.96 nM and 58.9 nM, respectively. Moreover, the JAK2/JAK1 in assay [2] came out at 7.09.

As for `C[C@H](O)C(=O)N1C[C@H]2C[C@@H](N(C)c3c(C#N)cnc4[nH]ccc34)C[C@H]2C1` [Compound H06, (3aR,5R,6aS)-4-{[2-((2S)-2-hydroxypropionyl)-hexahydrocyclopenta[c]pyrrole-5-yl]-methyl-amino}-1H-pyrrolo[2,3-b]pyridin-5-carbonitrile], the half-inhibitory concentration (IC50) in assay [1] was found to be 29.9 nM; in assay [2], 6.68 nM; in assay [3] (4 uM ATP), 96 nM.

For `CC[C@@H]1CN(C(=O)NC(C)C)C[C@@H]1Nc1c(C#N)cnc2[nH]ccc12` (relative stereo) [Compound H75], the half-inhibitory concentration (IC50) in assay [1] came to 17.3 nM; in assay [3], 89 nM.
